Source: patent US8936808B1, “Opioid agonist/opioid antagonist/acetaminophen combinations” (Purdue Pharma L.P., priority 1997, dated 2015)
“Also recorded” adds a separate entry of the source. Where two headings read alike, the source gives them in different places.

How the values were obtained:
[1] = format: in vivo
Source text: In certain other preferred embodiments, the opioid included in the dosage form is a different orally active opioid agonist than hydrocodone. […] Equianalgesic dosages of various opioid analgesics are provided below, and are otherwise known to those skilled in the art, e.g, from Foley, K. “The Treatment of Cancer Pain;” N. Engl.
In certain preferred embodiments, the opioid agonist is hydrocodone. Equianalgesic doses of the remaining opioids mentioned herein (and others) are known to those skilled in the art.

[2] = cited from earlier work
[3] = system: precipitated withdrawal / subjective effects of hydrocodone; assay: Example 3: precipitated withdrawal in morphine dependent volunteers receiving hydrocodone 30 mg and naltrexone oral solution; format: in vivo, human
[4] = system: opioid agonist properties of hydrocodone; assay: Example 1: naltrexone antagonism of hydrocodone 15 mg (VAS drug effect, pupillometry), four-way crossover study
Method: All treatments were administered under fasted conditions. […] Subjects were randomly assigned to four treatment sequences of the four treatment groups. […] Safety measurements consisted of reports of adverse events, vital signs, abnormal laboratory values, abnormal physical examination and ECG results. Pharmacodynamic parameters (pupil size and Modified Specific Drug Effect Questionnaire) were also assessed.
Pupil Size—Measured by Pupillometry.
The camera was centered in front of the subject's face with 3 inch frame against the lateral orbital rims and the eyes occupying the very top of the field (to minimize upgaze). The subject was asked to look just over the camera body and to fixate on a non-accommodative target in the distance, thereby minimizing the near reflex. With the volunteer fixing in the distance, the photo was taken. All photographs were taken in constant ambient light. The pupillary latency was such that the flash will not affect pupillary diameter. […] Development of the print for the recommended length of time (approximately one (1) minute, varying with ambient temperature) will produce a one-to-one photograph of the volunteer's midface, with the pupils at the top of the print. Horizontal pupillary diameter is then measured using a simple plus magnifier with a built-in reticule calibrated to 0.1 millimeter. Only the left eye was used to measure pupillary effects at each time period specified in the protocol. • b. A Modified Specific Drug Effect Questionnaire. […] The present questionnaire consisted of 10 items rated by the subject 10 minutes prior to blood sampling. The item is related to signs of opiate agonist drugs and was as follows: Subject questions: 1) do you feel any effects from the drugs?, 2) does your skin feel itchy?, 3) do you feel relaxed?, 4) do you feel sleepy?, 5) do you feel drunk?, 6) do you feel nervous?, 7) do you feel full of energy?, 8) do you feel you need to talk?, 9) do you feel sick to your stomach?, 10) do you feel dizzy? The subject then rated the item by placing a vertical mark along a 100 mm visual analog scale (VAS) anchored on one end by “not at all” and at the other end by “an awful lot”.

[5] = cited from earlier work; remark: listed apart in the source
[6] = cited from earlier work; remark: listed apart in the source
[7] = system: effects of morphine-like opioid agonist / heroin; details: cited from earlier work
[8] = system: opioid agonist effects of hydrocodone; assay: Example 2: ratio of oral naltrexone to oral hydrocodone, ten-period crossover (VAS drug effect, pupil diameter); format: in vivo, human
Method: All treatments were administered under fasted conditions. […] Subjects were randomly assigned to ten treatment sequences of the ten treatment groups.
The fast continued for an additional four (4) hours post-dose.
All samples were collected within ±2 minute of the scheduled time.

[9] = system: mu over delta sites; details: cited from earlier work
[10] = in comparison to a 15 mg dose of hydrocodone
[11] = 15 mg hydrocodone (HYIR/APAP) with increasing doses of naltrexone, range 0 mg-12.8 mg
[12] = 6.4-mg naltrexone dose, hydrocodone 15 mg

## COc1ccc2c3c1O[C@H]1[C@@H](O)C=C[C@H]4[C@@H](C2)N(C)CC[C@@]341 [Codeine]
[1]; [10]
  Equianalgesic Doses of Opioids, Calculated Dose: 90.0 mg

## COc1ccc2c3c1OC1C(=O)CC[C@H]4[C@@H](C2)N(C)CC[C@]314 (stereo partly drawn) [Hydrocodone, 4,5-epoxy-3-methoxy-17-methylmorphinan-6-one]
[1]; [10]
  Equianalgesic Doses of Opioids, Calculated Dose: 15.0 mg
[2]; in vivo, po
  relative analgesic potency versus oral morphine: about two times
[3]; in combination with naltrexone
  onset of effect: < 0.5 h
[4]; hydrocodone 15 mg plus naltrexone placebo
  pupillary constriction: most pupillary constriction

## CN1CC[C@]23CCCC[C@H]2[C@H]1Cc1ccc(O)cc13 [Levorphanol]
[1]; [10]
  Equianalgesic Doses of Opioids, Calculated Dose: 1.8 mg

## CCC(=O)C(CC(C)N(C)C)(c1ccccc1)c1ccccc1 (stereo not drawn) [Methadone]
[1]; [10]
  Equianalgesic Doses of Opioids, Calculated Dose: 9.0 mg

## CN1CC[C@]23c4c5ccc(O)c4O[C@H]2[C@@H](O)C=C[C@H]3[C@H]1C5 [Morphine]
[1]; in vivo
  Equianalgesic Doses of Opioids, Calculated Dose: 27.0 mg

## COc1ccc2c3c1O[C@H]1C(=O)CC[C@@]4(O)[C@@H](C2)N(C)CC[C@]314 [Oxycodone]
[1]; [10]
  Equianalgesic Doses of Opioids, Calculated Dose: 13.5 mg

## CC(=O)Nc1ccc(O)cc1 [acetaminophen]
[5]
  solubility in water: only poorly soluble in water

## C[C@H]1[C@H]2Cc3ccc(O)cc3[C@]1(C)CCN2CC1CC1 [cyclazocine]
[6]
  duration of action after oral doses: ~24 h

## CN1CC[C@]23c4c5ccc(O)c4O[C@H]2[C@@H](O)C=C[C@H]3[C@H]1C5.O=S(=O)(O)O [morphine sulphate]
[2]; 15 mg i.m.
  oral hydrocodone dose equivalent to 15 mg i.m.: 30 mg

## C=CCN1CC[C@]23c4c5ccc(O)c4O[C@H]2C(=O)CC[C@@]3(O)[C@H]1C5 [naloxone]
[7]; 1 mg intravenously
  block of the effect of 25 mg of heroin: completely block
[7]; 0.4-0.8 mg intramuscularly or intravenously in man
  effect on morphine-like opioid agonist effects: prevent or promptly reverse

## O=C1CC[C@@]2(O)[C@H]3Cc4ccc(O)c5c4[C@@]2(CCN3CC2CC2)[C@H]1O5 [naltrexone]
[8]; [11]
  drug effect VAS score: overall decrease
  pupillary constriction / pupil diameter: decrease in pupillary constriction; also recorded: increase in pupil diameter
[8]; approximately 0.4 mg naltrexone
  antagonism of the 15 mg hydrocodone dose: minimally antagonized
[8]; naltrexone dosages above 0.4 mg
  effect of the hydrocodone dose: increasing diminution
[9]
  blocking action, receptor preference: strong preferential blocking action against mu over delta sites
[3]; naltrexone 1 and 2 mg with hydrocodone 30 mg, first protocol
  precipitated withdrawal (abstinence): slight abstinence
[3]; physically dependent subjects, hydrocodone 30 mg
  subjective experience of hydrocodone on addition of naltrexone: decreased the favorable subjective experience of hydrocodone
[7]; 50 mg given 24 hours prior to challenge
  effect on opioid agonist effects of 25 mg intravenous heroin challenge: completely blocked or attenuated
[4]; [12]
  block of the opioid effect (VAS drug effect) of hydrocodone: not completely blocked
  block of the pupillary constriction of hydrocodone: not completely blocked
[4]; naltrexone 3.2 and 6.4 mg with hydrocodone 15 mg, FIG. 2
  antagonism of hydrocodone-induced pupillary constriction, relation to dose: dose-response effect
[4]; naltrexone oral solution 3.2 and 6.4 mg with hydrocodone 15 mg, FIG. 1
  antagonism of hydrocodone-induced VAS drug effect, relation to dose: dose-response effect

## Meperidine
[1]; [10]
  Equianalgesic Doses of Opioids, Calculated Dose: 135.0 mg
